From patent US12667538B2, “Vilazodone pharmaceutical composition, preparation method therefor and use thereof” (SHANGHAI YONSUN BIOTECHNOLOGY CO., LTD., priority 2020, dated 2026)

Assay: Particle size and distribution on a laser particle analyzer
Format: physicochemical
Details: drug substance used for formulas 14-23
Description: According to formula 1 shown in Table 1, the raw and auxiliary materials were weighed out and well mixed to obtain the suspension. The particle size was measured on a laser particle analyzer (parameter settings: dispersion medium: water; refractive index of dispersion medium: 1.333; absorbance of sample material: 0.05; refractive index of sample material: 1.711). The particle size morphology of the particles in the ground suspension was observed under a polarized light microscope. The particle size morphology of the solid particles of vilazodone in the suspension under the polarized light microscope is shown in FIG. 2.
The particle size of formulas 3, 4 and 5 and the distribution thereof were measured on a laser particle analyzer using the following parameter settings: dispersion medium: water; refractive index of dispersion medium: 1.333; absorbance of sample material: 0.05; refractive index of sample material: 1.711. The particle size and the distribution of formula 6 were measured on a nano particle size analyzer (NICOMP Particle Sizing Systems) using the following parameter settings: dispersion medium: water; refractive index of dispersion medium: 1.333; viscosity: 0.933 cp; temperature: 23° C.; luminous intensity setting: 300 kHz.
The particle size of formula 7 and the distribution thereof were measured on a laser particle analyzer using the following parameter settings: dispersion medium: water; refractive index of dispersion medium: 1.333; absorbance of sample material: 0.05; refractive index of sample material: 1.711. […]
According to the formulas shown in Table 12, the drug substance of different particle sizes and auxiliary materials were weighed out and well mixed by stirring to form suspensions, and formulas 8-13 were obtained. The particle size and the distribution thereof were measured on a laser particle analyzer using the following parameter settings: dispersion medium: water; refractive index of dispersion medium: 1.333; absorbance of sample material: 0.05; refractive index of sample material: 1.711. […]

## Cl.N#Cc1ccc2[nH]cc(CCCCN3CCN(c4ccc5oc(C(N)=O)cc5c4)CC3)c2c1 [Vilazodone hydrochloride, 2-benzofurancarboxamide, 5-[4-[4-(5-cyano-1H-indol-3-yl)butyl]-1-piperazinyl] hydrochloride (1:1)]
  D10: 8.4 μm
  D50: 20.6 μm
  D90: 43.9 μm
